Measurements as given in PubChem BioAssay (NCI).
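Compound exposure: 48 hours, 5 concentrations, 96-well plates. TGI denotes the concentration required for complete inhibition of growth.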

What was measured:
Test in all cases: NCI tumour cell line growth inhibition, 48 h
[1] = test system: OVCAR-5 ovarian
[2] = test system: NCI-H226 lung
[3] = test system: SR leukemia
[4] = test system: RPMI-8226 leukemia
[5] = test system: SNB-75 CNS
[6] = test system: U251 CNS
[7] = test system: A549 NSCLC
[8] = test system: HCC-2998 colon
[9] = test system: UO-31 renal
[10] = test system: ACHN renal
[11] = test system: CCRF-CEM leukemia
[12] = test system: KM12 colon
[13] = test system: CAKI-1 renal
[14] = test system: MDA-MB-231 breast
[15] = test system: SF-295 CNS
[16] = test system: SN12C renal
[17] = test system: NCI/ADR-RES ovarian
[18] = test system: MCF7 breast
[19] = test system: SW-620 colon
[20] = test system: RXF 393 renal
[21] = test system: OVCAR-8 ovarian
[22] = test system: M14 melanoma
[23] = test system: 786-0 renal
[24] = test system: MOLT-4 leukemia
[25] = test system: DU-145 prostate
[26] = test system: T-47D breast
[27] = test system: SF-539 CNS
[28] = test system: HCT-116 colon
[29] = test system: UACC-62 melanoma
[30] = test system: UACC-257 melanoma
[31] = test system: IGROV1 ovarian
[32] = test system: COLO 205 colon
[33] = test system: EKVX NSCLC
[34] = test system: SK-OV-3 ovarian
[35] = test system: NCI-H23 lung
[36] = test system: OVCAR-3 ovarian
[37] = test system: TK-10 renal
[38] = test system: HOP-62 NSCLC
[39] = test system: MDA-N
[40] = test system: NCI-H460 lung
[41] = test system: HS 578T breast
[42] = test system: HOP-92 NSCLC
[43] = test system: NCI-H522 lung
[44] = test system: LOX IMVI melanoma
[45] = test system: HT29 colon
[46] = test system: SK-MEL-5 melanoma
[47] = test system: HL-60(TB) leukemia
[48] = test system: HCT-15 colon
[49] = test system: A498 renal
[50] = test system: SF-268 CNS
[51] = test system: MDA-MB-435

CCOC(=O)[C@@H]1ON2O[C@@H](OC3CCCC3(c3ccccc3)c3ccccc3)C[C@H]3OC(=O)[C@@H]1C32 (stereo partly specified)
TGI [1]: 78.4 µM | TGI [2]: > 100 µM | TGI [3]: 61.4 µM | TGI [4]: 90.6 µM | TGI [5]: > 100 µM | TGI [6]: > 100 µM | TGI [7]: 57.4 µM | TGI [8]: > 100 µM | TGI [9]: 41.1 µM | TGI [10]: 37 µM | TGI [11]: 64.8 µM | TGI [12]: 29 µM | TGI [13]: 31.6 µM | TGI [14]: 49 µM | TGI [15]: > 100 µM | TGI [16]: 80.3 µM | TGI [17]: > 100 µM | TGI [18]: 52.1 µM | TGI [19]: 64.5 µM | TGI [20]: 48.2 µM | TGI [21]: > 100 µM | TGI [22]: 51.9 µM | TGI [23]: 79 µM | TGI [24]: > 100 µM | TGI [25]: 55.6 µM | TGI [26]: 69.1 µM | TGI [27]: 68 µM | TGI [28]: > 100 µM | TGI [29]: 42.2 µM | TGI [30]: 50.6 µM | TGI [31]: > 100 µM | TGI [32]: > 100 µM | TGI [33]: > 100 µM | TGI [34]: > 100 µM | TGI [35]: 37.2 µM | TGI [36]: 54.1 µM | TGI [37]: 43.6 µM | TGI [38]: > 100 µM | TGI [39]: 67.6 µM | TGI [40]: > 100 µM | TGI [41]: > 100 µM | TGI [42]: > 100 µM | TGI [43]: 91.9 µM | TGI [44]: > 100 µM | TGI [45]: 43.1 µM | TGI [46]: > 100 µM | TGI [47]: 60.9 µM | TGI [48]: 60.7 µM | TGI [49]: > 100 µM | TGI [50]: 70.2 µM | TGI [51]: 34.2 µM
